Data taken from BigSolDB 2.1.

O=C(O)c1cc(O)c(O)c(O)c1
solubility (mole fraction)
Settings | 293.15 K | 298.15 K | 303.15 K | 308.15 K | 313.15 K | 318.15 K
in acetonitrile | 0.0274 | 0.0341 | 0.0355 | 0.0378 | 0.0391 | 0.0405
in isopropanol | 0.028 | 0.0348 | 0.0362 | 0.0386 | 0.04 | 0.0409
in n-propanol | 0.0332 | 0.0413 | 0.0429 | 0.0458 | 0.0474 | 0.0486
in water | 0.00127 | 0.00148 | 0.00204 | 0.00252 | 0.0032 | 0.0038
